From PubChem BioAssay (NCI) come the findings set out here.

“And” between values parts separate entries of the source, which are not always exact repeats. Identical values can stand only once.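 Interpolation was linear, between the two tested concentrations surrounding the appropriate level; five concentrations were tested over 48 hours in 96-well plates. TGI: concentration producing complete growth inhibition.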

Among the test systems are DU-145 prostate; HCT-116 colon; A498 renal; 786-0 renal; SF-268 CNS; SF-539 CNS; NCI/ADR-RES ovarian; LOX IMVI melanoma; RPMI-8226 leukemia; CCRF-CEM leukemia.
Holding throughout (assay): NCI anticancer screen, dose series, 48 h

Consider `CC(C)[C@H](C)/C=C/[C@@H](C)C1CC[C@H]2[C@@]34C=C[C@]5(C[C@@H](O)CC[C@]5(C)[C@H]3CC[C@]12C)OO4` (some centres undefined), for which the TGI in the assay on DU-145 prostate is 56 µM; with HCT-116 colon, 42.8 µM; in the assay with A498 renal, 57.3 µM; with 786-0 renal, 47.7 µM; in the assay on SF-268 CNS, over 100 µM; with SF-539 CNS, over 100 µM. The TGI with NCI/ADR-RES ovarian is 50.2 µM; in the assay with LOX IMVI melanoma it was 41.6 µM.

`Cc1cc(N2CCCCC2)nc2ccc(Cc3ccc4nc(N5CCCCC5)cc(C)c4c3)cc12`: the TGI with RPMI-8226 leukemia, in the assay with DU-145 prostate, with HCT-116 colon, in the assay with A498 renal, in the assay with 786-0 renal and in the assay with SF-268 CNS was over 100 µM throughout. Also, the TGI in the assay with SF-539 CNS, with NCI/ADR-RES ovarian and in the assay on LOX IMVI melanoma was over 100 µM throughout.

On to `C/C(=N\Nc1nc2ccccc2[nH]1)c1ncccn1`, for which the TGI in the assay with DU-145 prostate is over 100 µM; in the assay with CCRF-CEM leukemia, over 100 µM; in the assay with HCT-116 colon, 1.74 µM; in the assay with A498 renal, 2.23 µM; with 786-0 renal, over 100 µM; in the assay with SF-268 CNS it was over 93.3 µM. Moreover, the TGI in the assay with SF-539 CNS was 0.0543 µM; in the assay on NCI/ADR-RES ovarian, 0.426 µM; with LOX IMVI melanoma, over 100 µM.

Turning to `COC(=O)[C@@H](NS(=O)(=O)CC12CCC(CC1)C2(C)C)C(C)(C)C`, the TGI in the assay on DU-145 prostate, in the assay on CCRF-CEM leukemia, with HCT-116 colon, with A498 renal, in the assay with 786-0 renal and in the assay with SF-268 CNS was over 100 µM each time. The TGI in the assay with SF-539 CNS, with NCI/ADR-RES ovarian and in the assay with LOX IMVI melanoma was over 100 µM in each case.

Turning to `CCOc1ccc2nc3nc(=O)[nH]c(C)c3c(NC(C)(CO)CO)c2c1`, the TGI with DU-145 prostate, in the assay on CCRF-CEM leukemia, with HCT-116 colon, in the assay on A498 renal, in the assay with 786-0 renal and with SF-268 CNS was over 100 µM each time. Further, the TGI in the assay with SF-539 CNS, with NCI/ADR-RES ovarian and in the assay with LOX IMVI melanoma was over 100 µM each time.

Regarding `CC(=O)OCC1OC(SC2=NC(=O)CS2)C(OC(C)=O)C(OC(C)=O)C1OC(C)=O` (centres undefined), the TGI in the assay with RPMI-8226 leukemia is 90 µM and > 100 µM; with DU-145 prostate, over 100 µM; with CCRF-CEM leukemia, over 100 µM; in the assay on A498 renal, over 100 µM; with 786-0 renal, over 100 µM; in the assay with SF-268 CNS, over 100 µM. The TGI in the assay with SF-539 CNS, with NCI/ADR-RES ovarian and with LOX IMVI melanoma was over 100 µM each time.

In the case of `Cn1c2ccccc2n2c3ncccc3c(=O)cc12`, the TGI in the assay on RPMI-8226 leukemia was over 100 µM; in the assay on DU-145 prostate, over 100 µM; in the assay on HCT-116 colon, 85.9 µM; with A498 renal it was over 100 µM; in the assay with 786-0 renal, over 100 µM; in the assay with SF-268 CNS it was over 100 µM. Besides, the TGI in the assay with SF-539 CNS, in the assay with NCI/ADR-RES ovarian and in the assay with LOX IMVI melanoma was over 100 µM each time.

Turning to `Cc1cc2nc3ccccc3n2c2ccccc12`, the TGI in the assay with RPMI-8226 leukemia, in the assay on DU-145 prostate, with CCRF-CEM leukemia, in the assay with HCT-116 colon, with 786-0 renal and with SF-268 CNS was over 10 µM throughout. Besides, the TGI with SF-539 CNS, in the assay on NCI/ADR-RES ovarian and with LOX IMVI melanoma was over 10 µM in each case.

In the case of `O=C1CC(c2ccsc2)n2cccc21` (centres undefined), the TGI in the assay on RPMI-8226 leukemia, in the assay on DU-145 prostate, in the assay on CCRF-CEM leukemia, with HCT-116 colon, in the assay on A498 renal and in the assay on 786-0 renal was over 100 µM in each case. The TGI with SF-268 CNS, with SF-539 CNS and in the assay with NCI/ADR-RES ovarian was over 100 µM throughout.

Turning to `Oc1c(Cl)cc2cc1-c1cc(cc(Cl)c1O)CCc1c(cc(Cl)c(O)c1Cl)-c1cc(Cl)c(c(Cl)c1O)/C=C\2`, the TGI in the assay with RPMI-8226 leukemia was over 50 µM; in the assay with DU-145 prostate, 16.1 µM; in the assay with CCRF-CEM leukemia, over 50 µM; with HCT-116 colon it was 15.3 µM; in the assay with A498 renal, 30.8 µM; in the assay with 786-0 renal, 16.6 µM. For the same molecule, the TGI was 23.6 µM in the assay with SF-268 CNS, 30.8 µM in the assay on NCI/ADR-RES ovarian and 20 µM in the assay with LOX IMVI melanoma.

Turning to `CC(CCc1nc2ccccc2s1)(c1ccc(O)cc1)c1ccc(O)cc1`, the TGI in the assay on DU-145 prostate is 31.6 µM; with HCT-116 colon, 34 µM; in the assay on A498 renal it was 36.5 µM; with 786-0 renal it was 30.2 µM; with SF-268 CNS, 40.5 µM; with NCI/ADR-RES ovarian it was 57.2 µM. In the assay on LOX IMVI melanoma, this molecule came in with a TGI of 29.4 µM.

Consider `Oc1ccc2ccccc2c1OCc1nnc(CCCCCCCCc2nnc(COc3c(O)ccc4ccccc34)n2Nc2ccccc2)n1Nc1ccccc1`, for which the TGI was over 100 µM in the assay on RPMI-8226 leukemia; over 70.1 µM in the assay with DU-145 prostate; 26 µM in the assay with HCT-116 colon; over 100 µM with A498 renal; 58.7 µM in the assay on 786-0 renal; over 100 µM in the assay on SF-268 CNS. For the same molecule, the TGI in the assay with SF-539 CNS was 26.7 µM; in the assay with NCI/ADR-RES ovarian, 56.9 µM.

Take `Cc1cc(C)nc(NS(=O)(=O)c2ccc(NNc3c4ccccc4nc4c(C(=O)Nc5ccc(S(=O)(=O)Nc6cc(C)on6)cc5)cccc34)cc2)n1`: the TGI is over 100 µM with RPMI-8226 leukemia; over 100 µM in the assay with DU-145 prostate; 63.5 µM in the assay on CCRF-CEM leukemia; over 100 µM with HCT-116 colon; over 100 µM in the assay with 786-0 renal; 81.3 µM in the assay with SF-268 CNS. In addition, the TGI in the assay on SF-539 CNS was over 100 µM; in the assay on NCI/ADR-RES ovarian it was over 100 µM; in the assay on LOX IMVI melanoma, 88.8 µM.

Regarding `O=C1c2ccccc2C2(c3ccc(F)cc3)NCCN12` (centres undefined), the TGI in the assay with RPMI-8226 leukemia, with DU-145 prostate, in the assay with CCRF-CEM leukemia, in the assay on HCT-116 colon, in the assay with 786-0 renal and in the assay with SF-268 CNS was over 100 µM each time. The TGI in the assay with NCI/ADR-RES ovarian was over 100 µM.

For the molecule `c1cc2cc3c4c5c(cc6ccc7cc8cc9c%10c8c8c7c6c5c8c5c%10c(c1C9N1CCOCCOCCOCCOCCOCC1)c2c45)C3` (centres undefined), the TGI in the assay on RPMI-8226 leukemia, with DU-145 prostate, with CCRF-CEM leukemia, in the assay on HCT-116 colon, in the assay with 786-0 renal and with SF-268 CNS was over 100 µM in each case. The TGI in the assay on SF-539 CNS, in the assay with NCI/ADR-RES ovarian and in the assay with LOX IMVI melanoma was over 100 µM each time.
